Publication PMC11640089, “JRM-28, a Novel HDAC2 Inhibitor, Upregulates Plasticity-Associated Proteins in Hippocampal Neurons and Enhances Morphological Plasticity via Activation of CREB: Implications for Alzheimer’s Disease” (Cells, 2024)

Tested on: mouse primary hippocampal neurons
Assay: Dendrite and spine analysis in E18 mouse primary hippocampal neurons
Type: cell-based
Details: 5 µM, 48 h
Experimental: Primary neuronal cell culture was performed based on a protocol approved by the Institutional Animal Care and Use Committee (IACUC) of the University of Wisconsin-Milwaukee, Milwaukee, WI-53211, and by the guidelines set by the National Institute of Health. Embryonic day 18 (E18) fetuses were harvested, and hippocampal tissue was dissected from brains and then processed for single cell culture in poly-D-lysine-coated plates, as discussed elsewhere. Neuronal cells were maintained with B-27^TM-plus-supplemented complete neurobasal media for 7–10 days until fully differentiated. After that, the treatment with JRM-28 was performed. […]
For counting spine density, dissociated E18 hippocampal neurons maintained 18 days in vitro were stained with Alexa-647 conjugated phalloidin (Cat #A22287) together with MAP2. Only densely stained neurons (>20 spines every 10 µm dendrite) were counted. The total length of each dendrite was measured at 400× magnification using an Accu-Scope EXC-500 microscope (NY, USA). The number of spines on the dendrites was counted under oil immersion. As some of the spines were hidden under the dendrite, only spines that protruded laterally from the shafts of the dendrites into the surrounding area of clear neuropil were counted. […]

**Q.** Which results are given for `CN(C(=O)CC(O)/C=C/CCSS(=O)(=O)CC/C=C/C(O)CC(=O)N(C)c1ccccc1)c1ccccc1` (stereo not drawn) [JRM-28, S-((E)-5-hydroxy-7-(methyl(phenyl)amino)-7-oxohept-3-en-1-yl) (E)-5-hydroxy-7-(methyl(phenyl)amino)-7-oxohept-3-ene-1-sulfonothioate]?
**A.** spine maturation (head-to-shaft ratio >0.6) (18 DIV): significantly induced the maturation of spines; MAP2-ir basal dendrites (8 days in vitro): significantly upregulated the synthesis of MAP2-ir basal dendrites
